The text below walks through data of patent publication US20240116877A1, “KIT KINASE INHIBITORS AND METHODS OF USE THEREOF” (Deciphera Pharmaceuticals, LLC, priority 2021, published 2024).

For one test, the target named is c-KIT kinase (uKIT) (Homo sapiens (Human), UniProt P10721). Nature of the test: Biochemical Assay for uKIT (coupled pyruvate kinase/lactate dehydrogenase assay). The following applies: Inhibition of biochemical activity of uKIT kinase; 1 mM ATP. The method, then:
Biochemical Assay for uKIT
Activity of c-KIT kinase (SEQ. ID NO. 1 or SEQ. ID NO. 2) was determined spectroscopically using a coupled pyruvate kinase/lactate dehydrogenase assay that continuously monitors the ATP hydrolysis-dependent oxidation of NADH (e.g., Schindler et al. Science (2000) 289: 1938-1942). Assays were conducted in 384-well plates (100 μL final volume) using 16 nM (Decode, SEQ ID No. 1) or 4.36 nM (Signal Chem, SEQ. ID No. 2), 0.7 mg/mL PE4Y substrate, 1.5 units pyruvate kinase, 2.1 units lactate dehydrogenase, 1 mM phosphoenol pyruvate, 0.28 mM NADH and 1 mM ATP in assay buffer (100 mM Tris, pH 7.5, 15 mM MgCl2, 0.5 mM DTT, 0.1% octyl-glucoside, 0.002% (w/v) BSA, and 0.002% Triton X-100). Inhibition of KIT was measured by adding serial diluted test compound (final assay concentration of 1% DMSO). A decrease in absorption at 340 nm was monitored continuously for 6 h at 30° C. on a multi-mode microplate reader (BioTek). The reaction rate was calculated using the 2-3 h time frame. The reaction rate at each concentration of compound was converted to percent inhibition using controls (i.e., reaction with no test compound and reaction with a known inhibitor) and IC50 values were calculated using software routines in Prism (GraphPad software).

A further test has as its system Ba/F3 KIT mutant cells. As to the kind of experiment: Ba/F3 mutant KIT Cell Proliferation Assays (resazurin). The conditions noted are these: Mus musculus, BaF3. The test is classed as cell-based. As for the experimental part:
Ba/F3 KIT Mutant Cell Line Transduction and Expansion
Several different KIT cDNA encoding various primary and secondary mutations were cloned into a pLV(Exp]-CMV>(cDNA):IRES:puro vector. These vectors were constructed and packaged by VectorBuilder.
Exponentially grown Ba/F3 cells (1×10^6 cells in 1 ml medium) were infected with 60 μl of viral suspension in a 6-well plate in the presence of mIL-3 (10 ng/ml) and polybrene (7.5 μg/ml) (Vector Builder) and incubated for 16 h. After 16 h, the cells were centrifuged, and viral supernatant was discarded. The cells were then re-suspended in fresh medium and allowed to recover for another day. After 72 h post infection, the cells were seeded with complete medium with mIL-3 and with 1 μg/ml puromycin added to medium for selection. After 48 h, cells without viral infection die, whereas successfully transduced cells were collected and changed to fresh medium with 5 ng/ml of IL-3. After a week or two with gradual withdrawal of mIL3 the cells that can continue to proliferate in the absence of mIL3 were exponentially expanded and were frozen down for banking.
Ba/F3 mutant KIT Cell Proliferation Assays
A serial dilution of test compound was dispensed into a 384-well black clear bottom plate (Corning, Corning, NY). Six hundred and twenty-five cells were added per well in 50 μL complete growth medium. Plates were incubated for 68 h at 37° C., 5% CO2, 95% humidity. At the end of the incubation period 10 μL of a 440 μM solution of resazurin (Sigma, St. Louis, MO) in PBS was added to each well and incubated for an additional 5 h at 37° C., 5% CO2, 95% humidity. Plates were read on a Synergy2 reader (Biotek, Winooski, VT) using an excitation of 540 nm and an emission of 600 nm. Data was analyzed using Prism software (Graphpad, San Diego, CA) to calculate IC50 values.
On the technique in general: Alamar Blue is a resazurin reagent that responds to reducing activity.

[1] abbreviates: Ba/F3 KIT exon11del-V654A mutant cell proliferation, read-out: exon11del-V654A IC50.
Where [2] appears, read: Ba/F3 KIT AYdup-V654A mutant cell proliferation, read-out: AYdup-V654A IC50.
[3] abbreviates: Ba/F3 KIT exon11del-Y823D mutant cell proliferation, read-out: exon11del-Y823D IC50.

pIC50: −log10 of the molar value. Like-named read-outs stand apart in the source and are kept apart here. Where only a bound is given, the exact number is not on record here.

Sequence of c-KIT kinase (uKIT) (P10721 other isoform, or with tags, fused parts or gaps): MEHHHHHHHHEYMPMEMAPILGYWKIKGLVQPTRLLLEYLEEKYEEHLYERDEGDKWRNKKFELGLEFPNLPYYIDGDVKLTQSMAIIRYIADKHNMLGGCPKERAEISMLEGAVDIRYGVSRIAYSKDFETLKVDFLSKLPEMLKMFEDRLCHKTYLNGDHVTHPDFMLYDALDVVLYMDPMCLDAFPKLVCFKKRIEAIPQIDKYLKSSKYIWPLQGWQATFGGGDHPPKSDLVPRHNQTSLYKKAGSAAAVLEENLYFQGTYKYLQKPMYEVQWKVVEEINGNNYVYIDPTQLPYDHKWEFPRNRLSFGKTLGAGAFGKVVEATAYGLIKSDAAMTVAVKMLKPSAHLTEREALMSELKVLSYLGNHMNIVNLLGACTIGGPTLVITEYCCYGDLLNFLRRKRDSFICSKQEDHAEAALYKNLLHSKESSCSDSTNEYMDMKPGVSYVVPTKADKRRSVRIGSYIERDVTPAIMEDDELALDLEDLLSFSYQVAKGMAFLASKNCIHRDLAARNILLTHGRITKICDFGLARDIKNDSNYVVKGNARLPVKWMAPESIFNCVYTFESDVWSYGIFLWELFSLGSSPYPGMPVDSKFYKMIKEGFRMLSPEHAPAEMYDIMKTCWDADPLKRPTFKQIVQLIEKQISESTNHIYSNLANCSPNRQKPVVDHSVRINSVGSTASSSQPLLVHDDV

On to `CN(C)CCOc1cc(F)c2c(Nc3ccc(NC(=O)NCCC(C)(C)C#N)cc3)ncnc2c1` [Example 80], for which the pIC50 at c-KIT kinase (uKIT) and with Ba/F3 KIT mutant cells (setting [1]) was less than 6.00 each time.
Regarding `COCCOc1cc(F)c2c(Nc3ccc(NC(=O)CCC(=O)NC(C)C)cc3)ncnc2c1` [Example 87], the pIC50 against c-KIT kinase (uKIT) was 7.00 to 8.00; in the test on Ba/F3 KIT mutant cells (setting [2]), 6.00 to 7.00; with Ba/F3 KIT mutant cells (setting [1]), 6.00 to 7.00.
In the case of `COCCOc1cc(F)c2c(Nc3ccc(NC(=O)C(=O)NC(C)(C)C)cc3)ncnc2c1` [Example 134], the pIC50 against c-KIT kinase (uKIT) was less than 6.00; in the test on Ba/F3 KIT mutant cells (setting [2]) it was less than 6.00; with Ba/F3 KIT mutant cells (setting [1]), 6.00 to 7.00; in the test with Ba/F3 KIT mutant cells (setting [3]), less than 6.00.
Regarding `COCCCc1ccc2c(Nc3ccc(NC(=O)CC(=O)NCC(C)(C)C)cc3)cnnc2c1` [Example 193], the pIC50 against c-KIT kinase (uKIT) is 7.00 to 8.00.
For the molecule `COCCOc1cc(F)c2c(Nc3ccc(NC(=O)CC(=O)N4[C@@H](C)COC[C@@H]4C)cc3)ncnc2c1` [Example 199], the pIC50 was 6.00 to 7.00 against c-KIT kinase (uKIT), less than 6.00 in the test with Ba/F3 KIT mutant cells (setting [2]), less than 6.00 with Ba/F3 KIT mutant cells (setting [1]) and less than 6.00 in the test with Ba/F3 KIT mutant cells (setting [3]).
Regarding `COCCOc1ccc2ncnc(Nc3ccc(NC(=O)NCCC(C)(C)F)cc3)c2c1F` [Example 200], the pIC50 against c-KIT kinase (uKIT) was 6.00 to 7.00; in the test on Ba/F3 KIT mutant cells (setting [2]) it was less than 6.00; with Ba/F3 KIT mutant cells (setting [1]) it was less than 6.00; in the test with Ba/F3 KIT mutant cells (setting [3]), less than 6.00.
`COCCOc1ccc2ncnc(Nc3ccc(NC(=O)CC(=O)NC4CCCC4)cc3)c2c1F` [Example 201]: the pIC50 at c-KIT kinase (uKIT) is 6.00 to 7.00; in the test with Ba/F3 KIT mutant cells (setting [2]), 6.00 to 7.00; with Ba/F3 KIT mutant cells (setting [1]), less than 6.00; in the test on Ba/F3 KIT mutant cells (setting [3]), less than 6.00.
Turning to `COc1cc(F)c2c(Nc3ccc(NC(=O)NCCC(C)(C)OC)cc3)ncnc2c1` [Example 202], the pIC50 on c-KIT kinase (uKIT), in the test on Ba/F3 KIT mutant cells (setting [2]), with Ba/F3 KIT mutant cells (setting [1]) and in the test with Ba/F3 KIT mutant cells (setting [3]) was 7.00 to 8.00 in each case.
Turning to `COc1cc(F)c2c(Nc3ccc(NC(=O)NCCC(C)(C)F)cc3)ncnc2c1` [Example 203], the pIC50 is no less than 8.00 against c-KIT kinase (uKIT), 7.00 to 8.00 with Ba/F3 KIT mutant cells (setting [2]), 7.00 to 8.00 in the test on Ba/F3 KIT mutant cells (setting [1]) and 7.00 to 8.00 in the test with Ba/F3 KIT mutant cells (setting [3]).
Consider `COCCOc1cc(OC)c2c(Nc3ccc(NC(=O)CC(=O)NCC(C)(C)C)cc3)ncnc2c1` [Example 204], for which the pIC50 on c-KIT kinase (uKIT) is 7.00 to 8.00; with Ba/F3 KIT mutant cells (setting [2]) it was 7.00 to 8.00; with Ba/F3 KIT mutant cells (setting [1]), 6.00 to 7.00; in the test on Ba/F3 KIT mutant cells (setting [3]) it was 7.00 to 8.00.
Regarding `COCCOc1ccc2c(Nc3ccc(NC(=O)CC(=O)NCC(C)(C)C)cn3)ccnc2c1` [Example 205], the pIC50 against c-KIT kinase (uKIT), with Ba/F3 KIT mutant cells (setting [2]), with Ba/F3 KIT mutant cells (setting [1]) and with Ba/F3 KIT mutant cells (setting [3]) was less than 6.00 in each case.
Take `COCCOc1cc(F)c2c(Nc3ccc(NC(=O)CC(=O)N4[C@H](C)COC[C@@H]4C)cc3)ncnc2c1` [Example 212]: the pIC50 in the test on Ba/F3 KIT mutant cells (setting [2]) was 6.00 to 7.00; in the test with Ba/F3 KIT mutant cells (setting [1]) it was less than 6.00; in the test on Ba/F3 KIT mutant cells (setting [3]) it was less than 6.00.
Consider `COc1cc2ncnc(Nc3ccc(NC(=O)NCCC(C)(C)C#N)cc3)c2cc1OC` [Example 218], for which the pIC50 in the test with Ba/F3 KIT mutant cells (setting [2]) is 6.00 to 7.00; in the test on Ba/F3 KIT mutant cells (setting [1]), less than 6.00; with Ba/F3 KIT mutant cells (setting [3]), less than 6.00.
`COCCOc1cc2ncnc(Nc3ccc(NC(=O)NCCC(C)(C)F)cc3)c2cc1OCCOC` [Example 222] gave a pIC50 at c-KIT kinase (uKIT) of 7.00 to 8.00.
The same measure, in the same setting: the result for `COCCOc1ccc2c(Nc3ccc(NC(=O)CC(=O)NCC(C)(C)C)cc3)ccnc2c1` [Example 223] reads 6.00 to 7.00; that for `CC(C)(F)CCNC(=O)Nc1ccc(Nc2ncnc3cc(OCC(=O)O)cc(F)c23)cc1` [Example 224], 7.00 to 8.00; that for `COCCOc1ccc2c(Nc3ccc(NC(=O)NCCC(C)(C)OC)cc3)ncnc2c1` [Example 225], no less than 8.00.
As for `COCCOc1ccc2c(Nc3ccc(NC(=O)NCCC(C)(C)C#N)cn3)ncnc2c1` [Example 226], the pIC50 at c-KIT kinase (uKIT) is 6.00 to 7.00.
On the same count and under the same terms, the result for `COCCOc1ccc2c(Nc3ccc(NC(=O)NCCC(C)(C)F)cn3)ncnc2c1` [Example 227] reads 6.00 to 7.00; that for `COCCOc1ccc2c(Nc3ccc(NC(=O)NCCC(C)(C)OC)cn3)ncnc2c1` [Example 228], 7.00 to 8.00; that for `COCCOc1ccc2c(Nc3ccc(NC(=O)CC(=O)NCC(C)(C)C)cn3)ncnc2c1` [Example 229], 6.00 to 7.00.

A word on the pIC50: it is the IC50 on a negative log10 scale, so that one unit is a factor of ten.
